Results as given in US20170333407A1, “METHOD FOR TREATING UNDERACTIVE BLADDER SYNDROME” (William Beaumont Hospital, priority 2014, published 2017).
“And” between values parts separate entries of the source, which are not always exact repeats. Identical values can stand only once. “Also recorded” adds a separate entry of the source.

Test system: patients with symptoms of UAB syndrome
Assay: Treatment of patients with symptoms of UAB syndrome with cevimeline (Qmax, PVR, UAB symptom questionnaire)
Format: in vivo, human
Settings: for UAB Score: five-question UAB symptom questionnaire, lower score = improvement; for UAB Score / PVR (residual urine volume in the bladder) / Qmax (maximum urine flow rate): individual patients
Text: Six different patients who each suffered from one or more medical conditions and symptoms of UAB syndrome were examined. UAB symptom-related data obtained from the patients before and after treatment with cevimeline was obtained from some of the patients and is presented below in Tables I-IV. […] Quantitative measurements were made to determine maximum urine flow rate Qmax (expressed in mL/s) and residual urine volume in the bladder PVR (expressed in mL). Qualitative measurements were obtained based on the patient's perceived UAB symptoms. A lower UAB score indicates an improvement in UAB symptoms. […] 4 and 6 after one week of treatment with cevimeline. Cevimeline was administered to each patient in 30 mg doses, three times per day. […] Specifically, the volume of residual urine in the bladder of patient 6 decreased from a baseline volume of 120 mL to a treated volume of 28 mL. To assess for qualitative improvement of UAB symptoms upon administration of cevimeline, patients were surveyed using a five-question UAB symptom questionnaire. The UAB score was then tallied from the patient responses. […] 4 and 6 after a two-week treatment with cevimeline. Cevimeline was administered to each patient in 60 mg doses, three times per day.

[1] = after one week of treatment with cevimeline 30 mg tid
[2] = after two weeks of treatment with cevimeline 60 mg tid

C[C@@H]1O[C@@]2(CS1)CN1CCC2CC1 [cevimeline, (2R,5R)-2-methylspiro[1,3-oxathiolane-5,3′-1-azabicyclo[2.2.2]octane]]
UAB Score [1]: 12 and 9 (2×) | PVR (residual urine volume in the bladder) [1]: 28 mL and 240 mL | Qmax (maximum urine flow rate) [1]: 2.9 mL/s and 3 mL/s | improvement in UAB symptoms (in words) (after one week, 30 mg three times per day, patient 4 and patient 6): did not demonstrate any quantitative or qualitative improvement; also recorded: did show quantitative improvement | UAB Score [2]: 7 | PVR (residual urine volume in the bladder) [2]: 92 mL and 69 mL | Qmax (maximum urine flow rate) [2]: 9.5 mL/s and 9.9 mL/s | improvement of UAB syndrome-related symptoms (in words) (after two-week treatment, 60 mg three times per day, patient 4 and patient 6): demonstrated both quantitative and qualitative improvements | overall effect on symptoms related to UAB syndrome (in words) (initial data from preliminary studies): effective at treating the symptoms related to UAB syndrome
